Results: US4691046A, “Butanedioic acid mono [(2-dimethylamino] ethyl ester)succinate” (Institut Organicheskoi Khimii Ordena Lenina I Ordena …, priority 1986, dated 1987)

What was measured:
[1] = Survival of mice on acute cooling; type: in vivo; settings: i.p. 1 hour before, 80 mg/kg (invention), 64 mg/kg (ester), 17 mg/kg (sodium succinate)
Experimental: The activity of the compound according to the present invention was studied in experiments on animals. The effectivemess of the compound according to the present invention was studied for resistance against an acute cold effect in comparison with conventional preparations such as butanedioic acid mono[(2-dimethylamino)ethyl ester] and sodium succinate.
The experiments were carried out on male mice (tetrahybdrids) with a body mass of 18-20 g which were placed into a cold chamber at a temperature of -15t to -17° C. in separate plastic cages slightly limiting their activity. […] The preparations were administered intraperiotoneally 1 hour before the cold effect the control animals were administered with a physiological solution.

[2] = Stresso-protective activity, motion stress in slowly rotating drum for 48 hours; type: in vivo, rats; settings: 48 h motion stress, 10 mg/kg i.p. four times (invention, ester)
Experimental: In evaluation of the stresso-protective activity of the compound according to the present invention as a model use was made of a procedure of depriving rats of sleep, meals and water in a slowly rotating drum (at the speed of 0.2 km/h).
The experiments were carried out on 42 nondescript male rats. In parallel experiments the antistress activity of butanedioic acid mono[(2-dimethylamino)ethyl ester] was studied; as the reference prepartion use was made of the prior art tranquilizer--diazepam which was used in the experiments for this very indication.
4 groups of animals were tested in parallel. Groups I and II were placed for 48 hours into a slowly rotating drum, groups III and IV were under normal conditions and were deprived only of meals and water. The compound according to the present invention and butanedioic acid mono[(2-dimethylamino)ethyl ester] were administered intraperitoneally in the dose of 10 mg/kg four times (2 times a day) in the volume of 2.5 ml/kg under the conditions of motion stress (Group I of the animals) and under normal conditions (Group III of animals). The control animals--Group II (active control) and Group IV (passive control) were given a physiological solution. The efficiency of the compound according to the present invention, of butanedioic acid mono[(2-dimethylamino)ethyl ester] and of diazepam was estimated on the basis of a set of characteristics showing the functional activity of the central nervous system, physical fitness and development of basic symptoms of the stress-syndrome.
The residence of control rats in a slowly-rotating drum over 48 hours results in a noticeable deterioration of all the studied characteristics, especially those of higher nervous activity (learning) and development of stress-syndrome. The state of control animals was characterized by lowering of the overall behavioural activity as determined by the "open-field" test (37±15%) with reference to the passive control level, by a reduction in the speed of development of a conventional avoiding response in an aqueous labyrinth (58±15%), by an increase in the number of mistakes during the teaching time (175±25%), lowering of the ultimate physical endurance as determined by the swimming-with-load test (the load is equal to 10% by mass of the body (70±17%), adrenal hypertrophy (146±16%), thymus atrophy (49±9%) and formation of ulcers on the stomach mucous membrane (5.25±1.0%).

| Compound | Survival, %, 1 hour ([1]; 1 hour of cold at -15 to -17° C.) | Survival, %, 2 hours ([1]; 2 hours of cold at -15 to -17° C.) | Survival, %, 3 hours ([1]; 3 hours of cold at -15 to -17° C.) | Survival, %, 4 hours ([1]; 4 hours of cold at -15 to -17° C.) | Survival, %, 5 hours ([1]; 5 hours of cold at -15 to -17° C.) | Survival, %, 6 hours ([1]; 6 hours of cold at -15 to -17° C.) | Weight coefficient of thymus ([2]; control 0.95 ± 0.18) | Weight coefficient of adrenal glands ([2]; control 1.246 ± 0.028) | Number of attempts till reaching the learning criterion (water labyrinth) ([2]; control 4.75 ± 0.5) | Number of ulcers on the stomach mucous membrane ([2]; control 5.25 ± 1.0) | Duration of swimming ([2]; control 244 ± 26) |
| --- | --- | --- | --- | --- | --- | --- | --- | --- | --- | --- | --- |
| O=C(O)CCC(=O)O [Sodium succinate, sodium succinate] | 100% | 80% | 70% | 40% | 10% | 0% | – | – | – | – | – |
| CN1C(=O)CN=C(c2ccccc2)c2cc(Cl)ccc21 [Diazepam, diazepam] | – | – | – | – | – | – | 2.26 g/kg of the initial body mass | 1.010 g/kg of the initial body mass | 7.25 | 1.0 | 210 s |
